Laboratory results from PMC6273431, “The Structure–Antimicrobial Activity Relationships of a Promising Class of the Compounds Containing the N-Arylpiperazine Scaffold” (Molecules, 2016).
Where two headings read alike, the source gives them in different places.

Key:
M. kansasii DSM 44162 = assay: antimycobacterial MIC, broth dilution micromethod; type: cell-based; conditions: Mycobacterium kansasii, DSM44162, 168 h, 7 days at 37 °C
M. smegmatis ATCC 700084 = assay: antimycobacterial MIC, broth dilution micromethod; type: cell-based; conditions: Mycolicibacterium smegmatis, ATCC700084, 72 h, 3 days at 37 °C
[1] = test system: Mycobacterium avium subsp. paratuberculosis CIT03; assay: antimycobacterial MIC, MB broth, alamarBlue; type: cell-based; conditions: 264 h, read-out: MIC MAP
Procedure: The Mycobacterium avium subsp. paratuberculosis CIT03 strain was grown in the Middlebrook (MB) broth, supplemented with the Oleic-Albumin-Dextrose-Catalase Supplement (OADC, Becton Dickinson, Oxford, UK) and the mycobactin J (2 μg/mL). The commercially available siderophore mycobactin J reduced the incubation period of M. avium subsp. paratuberculosis in a complex medium when compared to the medium containing the mycobactin P as a growth factor.
The identification of the isolate was performed using biochemical and molecular protocols. At a log phase growth, a culture sample (10 mL) was centrifuged at 15,000 rpm/20 min using a bench top centrifuge (Model CR 4-12, Jouan Inc., London, UK). Following removal of the supernatant, the pellet was washed in fresh Middlebrook 7H9GC broth and re-suspended in fresh supplemented MB broth (10 mL). The turbidity was adjusted to match the McFarland standard No. 1 containing approximately 3.0 × 10^8 Colony Forming Units (CFU) with the MB broth. Further 1:20 dilution of the culture was performed in the MB broth. The susceptibility of given mycobacterial species was investigated in a 96-well plate format. In those experiments, sterile deionised water (300 μL) was added to all outer-perimeter wells of the plates to minimize an evaporation of the medium in the test wells during the incubation process. Each evaluated compound (100 μL) was incubated with the mycobacterial species (100 μL). The dilutions of a particular compound were prepared in triplicate. For all inspected derivatives, final concentrations ranged from 1000 μg/mL to 60 μg/mL. All compounds were prepared in dimethyl sulfoxide (DMSO; Sigma-Aldrich, Irvine, UK) and subsequent dilutions were made in the supplemented MB broth. The plates were sealed with a parafilm and incubated at 37 °C for 11 days. Following the incubation, a 10% addition of a water‑soluble dye, the alamarBlue reagent (AbD Serotec, Kidlington, UK), was mixed into each well. Absorbance readings at 570 nm and 600 nm were taken, initially for background subtraction and after 24 h re-incubation. The subtraction is necessary for strongly coloured compounds, where the colour may interfere with the interpretation of any colour change. For non-interfering compounds, a blue colour in a well was interpreted as an absence of a growth and a pink colour was scored as a growth.
The minimum inhibitory concentration (MIC) was defined as the lowest concentration of the compound at which no visible bacterial growth was observed. In other words, the MIC was the lowest concentration that prevented a visual colour change from blue to pink. The MIC value has been routinely and widely used in bacterial assays and it has been a standard detection limit according to the Clinical and Laboratory Standards Institute. The clinically used antimycobacterial drugs INH and RIF were applied as the standards.

[2] = test system: Enterococcus faecalis ATCC 29212; assay: antibacterial MIC, microtitration broth method; type: cell-based; conditions: 37 °C
Procedure: (§1) Prior to the testing, each strain was transferred into a nutrient agar (Oxoid Limited, Basingstoke, UK), which was enriched with 5% defibrinated bovine blood.
(§2) The MICs were determined by the microtitration broth method in the cation-adjusted Mueller-Hinton broth (Becton Dickinson, Oxford, UK) according to an international interdisciplinary Clinical Laboratory Standard Institute guidelines.
(§3) The checkerboard was inoculated by the bacterial inocula, which were prepared in a phosphate buffered saline solution with the pH = 7.2–7.3 to simulate physiological pH. The final concentration of each inoculum in the final volume of 100 μL in the wells was approximately 7.5 × 10^6 CFU/mL. Drug-free controls, sterility controls and the controls consisted of the broth with DMSO were included. The determination of the results was performed visually after 24 h of static incubation in the darkness at 37 °C in an aerobic atmosphere.
(§4) To ensure reproducibility, each antibacterial MIC assay was performed triplicate on separate occasions.

[3] = test system: methicillin-resistant Staphylococcus aureus 63718; assay: antibacterial MIC, microtitration broth method; type: cell-based; conditions: MRSA, 37 °C
Procedure: as §1, §2, §3, §4

[4] = test system: Escherichia coli ATCC 25922; assay: antibacterial MIC, microtitration broth method; type: cell-based; conditions: 37 °C
Procedure: as §1, §2, §3, §4

[5] = test system: Staphylococcus aureus ATCC 29213; assay: antibacterial MIC, microtitration broth method; type: cell-based; conditions: 37 °C
Procedure: as §1, §2, §3, §4

[6] = design: method as in PMID 16209439, PMID 16209439; conditions: potentiometric titration; cited from earlier work
[7] = test system: Candida parapsilosis CCM 8260; assay: candidacidal MIC, microdilution method; type: cell-based; conditions: Lodderomyces parapsilosis, CCM8260, 48 h, 37 °C
Procedure: (§5) In order to provide a look into the potential usefulness of the derivatives 5a–l as the candidates for a development of anti-yeast (candidacidal) agents, they were in vitro tested against Candida albicans CCM 8261 (CA 8261), C. krusei CCM 8271 (CK 8271) and C. parapsilosis CCM 8260 (CP 8260). The yeasts were obtained from the Czech Collection of Microorganisms (Masaryk University, Faculty of Science, Brno, Czech Republic). They were grown and kept on Sabouraud agar (Oxoid Limited, Basingstoke, UK).
(§6) For the screening, the microdilution method according to the Antimicrobial Susceptibility Testing Protocols was applied. The inoculum was prepared from the cultures grown on Sabouraud agar. With the sterile solution of NaCl, the inoculum was prepared to the 0.5 McFarland units using the Densi-La-Meter densitometer (LIAP, Riga, Latvia) and diluted a thousand‑fold with the Roswell Park Memorial Institute (RPMI) 1640 medium (Sigma-Aldrich, Darmstadt, Germany). Prepared suspension was used for an inoculation of microtitre plates. Final concentration in wells ranged from 5.0 × 10^2 CFU/mL to 2.5 × 10^3 CFU/mL. […] For the determination of the MICs, the stock solutions of all the tested compounds were diluted in the microtitre checkerboard to the final concentration varying from 128 μg/mL to 0.125 μg/mL. Drug-free control, sterility control and the control consisted of a medium and DMSO alone were included. Inoculated microtitre plates were incubated for 48 h in the darkness at 37 °C in an aerobic atmosphere. The results were estimated against static light.
(§7) The MIC was defined as the lowest concentration of the tested compound at which no visible growth was observed. To ensure reproducibility of the results, each candidacidal MIC assay was performed triplicate on separate occasions. It was important to note that all the MICs from the in vitro antimicrobial screening were expressed in μg/mL units and were available in Tables S3 and S4 (Supplementary Materials).

[8] = test system: Candida albicans CCM 8261; assay: candidacidal MIC, microdilution method; type: cell-based; conditions: Candida albicans, CCM8261, 48 h, 37 °C
Procedure: as §5, §6, §7

Candida krusei CCM 8271 = assay: candidacidal MIC, microdilution method; type: cell-based; conditions: Pichia kudriavzevii, CCM8271, 48 h, 37 °C
Procedure: as §5, §6, §7

[9] = design: method as in PMID 16209439, PMID 16209439, doi:10.2478/s11696-006-0007-y; conditions: octan-1-ol/phosphate buffer (pH = 7.4); cited from earlier work
M. marinum CAMP 5644 = assay: antimycobacterial MIC, broth dilution micromethod; type: cell-based; conditions: Mycobacterium marinum, CAMP5644, 504 h, 21 days at 28 °C

SMILES | MIC (M. kansasii DSM 44162) [µM] | MIC (M. kansasii DSM 44162; Table S3) [µg/mL] | MIC (M. smegmatis ATCC 700084) [µM] | MIC (M. smegmatis ATCC 700084; Table S3) [µg/mL] | MIC ([1]; 37 °C, 11 days) [µM] | MIC [1] [µg/mL] | MIC ([2]; ATCC29212, 24 h) [µM] | MIC ([2]; ATCC29212, Table S4, 24 h) [µg/mL] | MIC ([3]; 24 h) [µM] | MIC ([3]; Table S4, 24 h) [µg/mL] | MIC ([4]; ATCC25922, 24 h) [µM] | MIC ([4]; ATCC25922, Table S4, 24 h) [µg/mL] | MIC ([5]; ATCC29213, 24 h) [µM] | MIC ([5]; ATCC29213, Table S4, 24 h) [µg/mL] | pKa [6] | MIC [7] [µM] | MIC ([7]; Table S4) [µg/mL] | MIC [8] [µM] | MIC ([8]; Table S4) [µg/mL] | MIC (Candida krusei CCM 8271) [µM] | further results
CCOc1ccc(NC(=O)OCC(O)CN2CCN(c3cccc(C(F)(F)F)c3)CC2)cc1 (stereo not drawn) [Compound 5f] | 508 | 256 | 508 | 256 | 992 | 500 | > 508 | > 256 | > 508 | > 256 | > 508 | > 256 | > 508 | > 256 | 5.69 | > 254 | > 128 | > 254 | > 128 | > 254 | MIC (Candida krusei CCM 8271; Table S4): > 128 µg/mL; log Pexp [9]: 3.71; MIC (M. marinum CAMP 5644): 254 µM; MIC (M. marinum CAMP 5644; Table S3): 128 µg/mL
COc1ccccc1NC(=O)OCC(O)CN1CCN(c2ccc(F)cc2)CC1 (stereo not drawn) [Compound 5g] | 145 | 64 | 582 | 256 | 2270 | 1000 | > 582 | > 256 | > 582 | > 256 | > 582 | > 256 | > 582 | > 256 | 6.73 | > 291 | > 128 | > 291 | > 128 | > 291 | MIC (Candida krusei CCM 8271; Table S4): > 128 µg/mL; log Pexp [9]: 3.61; MIC (M. marinum CAMP 5644): 145 µM; MIC (M. marinum CAMP 5644; Table S3): 64 µg/mL
CCOc1ccccc1NC(=O)OCC(O)CN1CCN(c2ccc(F)cc2)CC1 (stereo not drawn) [Compound 5h] | 282 | 128 | 564 | 256 | 1100 | 500 | > 564 | > 256 | > 564 | > 256 | > 564 | > 256 | > 564 | > 256 | 6.58 | > 282 | > 128 | > 282 | > 128 | > 282 | MIC (Candida krusei CCM 8271; Table S4): > 128 µg/mL; log Pexp [9]: 3.90; MIC (M. marinum CAMP 5644): 282 µM; MIC (M. marinum CAMP 5644; Table S3): 128 µg/mL
